Source: publication PMC5216056 (Nature Communications, 2017)
Several values for one entry are separate records, joined by “and”; a condition that tells them apart may be missing. Identical values can stand only once. Entries after “also recorded” stand apart in the source; their conditions may differ.

How the values were obtained:
[1] = molecular target: T1, mCB2R (Mus musculus, UniProt P47936); assay: PathHunter β-arrestin recruitment assay; assay type: cell-based; conditions: for Emax ± SEM β-AR recruitment mCB2R: normalized to 10 µM CP55940
[2] = molecular target: T1, mCB2R; assay: Operational analysis of biased signalling; conditions: for ΔLogR GTPγS / ΔLogR cAMP / ΔLogR β-AR: reference CP55940; for RE GTPγS / RE cAMP / RE β-AR: relative effectiveness
[3] = Pharmacokinetics, oral administration in mice; assay type: in vivo, mouse; conditions: p.o.
[4] = tested on: C57BL6/J mice; assay: Triad assay: antinociception; assay type: in vivo, mouse; conditions: for antinociception, cannabimimetic effect: 1-100 mg kg^−1 i.p., cumulative, mice
[5] = molecular target: T2, B2 (h) (Homo sapiens, UniProt P30411); assay: CEREP panel; assay type: binding; conditions: 10 µM
T2 construct: CEREP
T2 sequence (P30411 1-391): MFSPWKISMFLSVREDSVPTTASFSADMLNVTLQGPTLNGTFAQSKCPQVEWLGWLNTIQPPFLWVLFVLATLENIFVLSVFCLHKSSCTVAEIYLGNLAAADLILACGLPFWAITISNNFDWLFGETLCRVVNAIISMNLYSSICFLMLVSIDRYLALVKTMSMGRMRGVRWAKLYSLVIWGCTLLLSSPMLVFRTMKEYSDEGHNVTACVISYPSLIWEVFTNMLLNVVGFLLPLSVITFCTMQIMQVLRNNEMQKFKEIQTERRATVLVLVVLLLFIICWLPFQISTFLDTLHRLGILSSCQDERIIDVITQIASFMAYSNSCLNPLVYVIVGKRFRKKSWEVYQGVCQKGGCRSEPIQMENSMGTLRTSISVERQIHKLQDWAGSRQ

[6] = molecular target: T3, BZD (peripheral) (Rattus norvegicus, UniProt P16257); assay: CEREP panel; assay type: binding; conditions: 10 µM
T3 construct: CEREP

[7] = molecular target: T4, MC4 (h) (Homo sapiens, UniProt P32245); assay: CEREP panel; assay type: binding; conditions: 10 µM
T4 construct: CEREP (contract assay)

[8] = molecular target: T5, MT1 (ML1A) (h) (Homo sapiens, UniProt P48039); assay: CEREP panel; assay type: binding; conditions: 10 µM
T5 construct: CEREP (contract assay)

[9] = molecular target: T6, NK2 (h) (Homo sapiens, UniProt P21452); assay: CEREP panel; assay type: binding; conditions: 10 µM
T6 construct: CEREP (contract assay)
T6 sequence (P21452 1-398): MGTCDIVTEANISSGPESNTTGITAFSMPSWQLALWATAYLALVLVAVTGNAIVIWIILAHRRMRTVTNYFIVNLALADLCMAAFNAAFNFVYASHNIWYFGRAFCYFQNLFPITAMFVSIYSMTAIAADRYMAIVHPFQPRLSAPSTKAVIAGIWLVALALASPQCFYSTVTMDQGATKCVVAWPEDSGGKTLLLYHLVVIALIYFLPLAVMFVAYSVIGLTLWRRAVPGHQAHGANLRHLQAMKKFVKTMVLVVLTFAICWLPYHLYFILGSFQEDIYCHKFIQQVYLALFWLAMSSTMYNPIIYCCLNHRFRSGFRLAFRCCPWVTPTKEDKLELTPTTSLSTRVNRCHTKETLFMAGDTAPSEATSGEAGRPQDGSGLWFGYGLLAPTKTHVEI

[10] = molecular target: T7, NK3 (h) (Homo sapiens, UniProt P29371); assay: CEREP panel; assay type: binding; conditions: 10 µM
T7 construct: CEREP (contract assay)
T7 sequence (P29371 1-465): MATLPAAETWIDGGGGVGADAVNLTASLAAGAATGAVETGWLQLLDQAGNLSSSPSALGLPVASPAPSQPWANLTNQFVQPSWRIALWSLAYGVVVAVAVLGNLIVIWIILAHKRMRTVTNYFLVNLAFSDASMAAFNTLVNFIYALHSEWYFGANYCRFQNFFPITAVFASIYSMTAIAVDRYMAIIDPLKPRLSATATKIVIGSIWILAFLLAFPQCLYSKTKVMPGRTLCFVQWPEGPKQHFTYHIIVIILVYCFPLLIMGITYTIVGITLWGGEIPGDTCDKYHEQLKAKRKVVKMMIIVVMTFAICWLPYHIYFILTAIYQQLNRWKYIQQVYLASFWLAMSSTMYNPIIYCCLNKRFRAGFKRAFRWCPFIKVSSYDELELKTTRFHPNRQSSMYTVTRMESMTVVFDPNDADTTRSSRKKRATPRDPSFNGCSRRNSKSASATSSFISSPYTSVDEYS

[11] = molecular target: T8, NOP (ORL1) (h) (Homo sapiens, UniProt P41146); assay: CEREP panel; assay type: binding; conditions: 10 µM
T8 construct: CEREP (contract assay)

[12] = tested on: P2X; assay: CEREP panel; assay type: binding; conditions: 10 µM
[13] = tested on: PDGF; assay: CEREP panel; assay type: binding; conditions: 10 µM
[14] = not given; remark: listed apart in the source
[15] = molecular target: T9, FP (h) (Homo sapiens, UniProt P43088); assay: CEREP panel; assay type: binding; conditions: 10 µM
T9 construct: CEREP (contract assay)

[16] = molecular target: T10, COX2 (h) (Homo sapiens, UniProt P35354); assay: CEREP panel, enzyme and cell-based assays; assay type: biochemical; conditions: 10 µM
T10 construct: CEREP (contract assay)

[17] = physchem; conditions: pH 6.5, aqueous buffer, thermodynamic from solid
[18] = in vitro; conditions: both, human, microsomes, pH 7.4
[19] = in vitro; conditions: male, C57BL/6J, mouse, microsomes, pH 7.4

T1 sequence (P47936 whole entry): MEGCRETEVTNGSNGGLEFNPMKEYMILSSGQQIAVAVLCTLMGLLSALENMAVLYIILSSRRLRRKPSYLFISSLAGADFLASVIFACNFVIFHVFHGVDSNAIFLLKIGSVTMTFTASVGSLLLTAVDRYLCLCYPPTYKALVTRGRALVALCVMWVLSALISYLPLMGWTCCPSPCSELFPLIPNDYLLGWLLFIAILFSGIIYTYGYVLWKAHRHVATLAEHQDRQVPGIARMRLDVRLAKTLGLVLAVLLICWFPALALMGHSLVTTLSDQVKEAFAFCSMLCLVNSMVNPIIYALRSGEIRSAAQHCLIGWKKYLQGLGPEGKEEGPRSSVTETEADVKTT
T9 sequence (P43088 whole entry): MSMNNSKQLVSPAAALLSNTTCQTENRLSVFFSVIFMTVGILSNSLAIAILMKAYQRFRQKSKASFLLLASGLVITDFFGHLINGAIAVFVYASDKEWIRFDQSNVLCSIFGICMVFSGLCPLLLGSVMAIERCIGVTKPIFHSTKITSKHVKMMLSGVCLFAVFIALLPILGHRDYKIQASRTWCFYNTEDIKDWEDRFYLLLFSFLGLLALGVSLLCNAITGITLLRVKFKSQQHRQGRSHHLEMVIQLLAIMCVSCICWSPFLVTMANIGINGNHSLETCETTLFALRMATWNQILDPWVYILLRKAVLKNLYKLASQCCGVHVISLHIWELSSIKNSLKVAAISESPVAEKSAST
T3 sequence (P16257 whole entry): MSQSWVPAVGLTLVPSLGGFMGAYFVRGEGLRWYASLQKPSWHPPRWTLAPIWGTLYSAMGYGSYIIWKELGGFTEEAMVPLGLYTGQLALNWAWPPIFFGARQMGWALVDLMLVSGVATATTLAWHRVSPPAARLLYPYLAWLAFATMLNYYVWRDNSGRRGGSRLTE
T4 sequence (P32245 whole entry): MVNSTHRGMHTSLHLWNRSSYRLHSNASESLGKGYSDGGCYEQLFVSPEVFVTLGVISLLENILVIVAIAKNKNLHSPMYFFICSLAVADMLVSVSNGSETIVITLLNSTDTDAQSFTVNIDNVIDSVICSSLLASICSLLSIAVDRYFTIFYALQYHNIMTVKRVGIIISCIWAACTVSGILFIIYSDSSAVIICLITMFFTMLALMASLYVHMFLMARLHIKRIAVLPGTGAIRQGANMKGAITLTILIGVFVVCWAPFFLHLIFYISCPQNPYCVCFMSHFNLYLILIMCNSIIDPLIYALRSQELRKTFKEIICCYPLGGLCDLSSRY
T5 sequence (P48039 whole entry): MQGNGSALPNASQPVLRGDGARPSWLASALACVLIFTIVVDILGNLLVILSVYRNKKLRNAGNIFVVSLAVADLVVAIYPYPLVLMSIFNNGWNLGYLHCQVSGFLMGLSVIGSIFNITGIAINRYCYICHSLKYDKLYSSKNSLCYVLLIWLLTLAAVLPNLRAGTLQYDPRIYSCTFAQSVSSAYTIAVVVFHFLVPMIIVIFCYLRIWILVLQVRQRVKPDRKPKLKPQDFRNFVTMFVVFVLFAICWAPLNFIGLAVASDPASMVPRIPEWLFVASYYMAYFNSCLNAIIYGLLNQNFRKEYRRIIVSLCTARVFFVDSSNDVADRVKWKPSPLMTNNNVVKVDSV
T8 sequence (P41146 whole entry): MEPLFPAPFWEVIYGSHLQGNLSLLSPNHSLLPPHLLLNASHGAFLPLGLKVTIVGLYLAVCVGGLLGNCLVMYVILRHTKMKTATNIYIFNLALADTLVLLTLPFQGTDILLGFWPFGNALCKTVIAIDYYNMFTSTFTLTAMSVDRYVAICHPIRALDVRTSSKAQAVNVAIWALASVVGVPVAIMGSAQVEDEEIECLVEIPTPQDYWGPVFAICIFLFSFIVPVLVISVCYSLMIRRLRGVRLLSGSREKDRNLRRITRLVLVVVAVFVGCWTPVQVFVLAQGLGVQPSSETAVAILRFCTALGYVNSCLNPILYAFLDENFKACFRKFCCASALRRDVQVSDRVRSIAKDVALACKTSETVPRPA
T10 sequence (P35354 18-604): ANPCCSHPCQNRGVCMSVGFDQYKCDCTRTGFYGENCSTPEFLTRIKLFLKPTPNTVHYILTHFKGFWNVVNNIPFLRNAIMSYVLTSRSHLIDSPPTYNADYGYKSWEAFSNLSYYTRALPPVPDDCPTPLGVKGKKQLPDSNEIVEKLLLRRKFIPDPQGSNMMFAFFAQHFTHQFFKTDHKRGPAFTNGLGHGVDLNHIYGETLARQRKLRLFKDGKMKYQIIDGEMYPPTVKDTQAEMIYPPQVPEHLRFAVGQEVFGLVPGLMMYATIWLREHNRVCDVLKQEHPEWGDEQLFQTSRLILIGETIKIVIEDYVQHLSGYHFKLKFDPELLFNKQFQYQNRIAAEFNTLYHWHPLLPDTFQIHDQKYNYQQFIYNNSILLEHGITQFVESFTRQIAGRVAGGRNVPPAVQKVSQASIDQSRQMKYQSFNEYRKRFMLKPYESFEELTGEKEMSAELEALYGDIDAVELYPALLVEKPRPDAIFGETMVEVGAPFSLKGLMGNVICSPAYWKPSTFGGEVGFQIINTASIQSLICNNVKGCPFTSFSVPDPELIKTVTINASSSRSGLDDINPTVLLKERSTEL

Row | Compound | pEC50 ± SEM β-AR recruitment mCB2R [1] | Emax ± SEM β-AR recruitment mCB2R [1] [%] | GTPγS-cAMP bias factor (BF) [2] | GTPγS-cAMP ΔΔlogR [2] | LogR GTPγS [2] | LogR cAMP [2] | LogR β-AR [2] | β-AR-GTPγS bias factor (BF) [2] | β-AR-GTPγS ΔΔlogR [2] | β-AR-cAMP bias factor (BF) [2] | β-AR-cAMP ΔΔlogR [2] | ΔLogR GTPγS [2] | ΔLogR cAMP [2] | ΔLogR β-AR [2] | RE GTPγS [2] | RE cAMP [2] | RE β-AR [2] | antinociception, cannabimimetic effect [4] | % inhibition B2 (h) [5] [%] | % inhibition BZD (peripheral) [6] [%] | other results
1 | CCCCCCC(C)(C)c1cc(OC)c(C2=C[C@H]3CC[C@]2(CO)C3(C)C)c(OC)c1 [HU910] | 6.78 ± 0.16 | 66 ± 1 | 23.6 | 1.37 ± 0.24 | 7.15 ± 0.07 | 8.48 ± 0.18 | 6.57 ± 0.11 | 0.18 | -0.75 ± 0.15 | 4.2 | 0.63 ± 0.26 | -0.67 ± 0.08 | -2.04 ± 0.23 | -1.41 ± 0.12 | 0.22 | 0.009 | 0.04 | did not produce detectable; also recorded: lacked appreciable pharmacological effects | -39 | -11 | AUCinf [3]: 904 ng·h/mL; AUCinf/dose [3]: 301 kg·ng·h/mL/mg; AUClast [3]: 895 ng·h/mL; Cmax [3]: 495 ng/mL; T1/2 [3]: 5.2 h; Tmax [3]: 1.0 h; antagonism of HU210-induced antinociception ([4]; pretreatment (SR141716A 3 mg kg^−1, HU910 30 mg kg^−1) before HU210 1.7 mg kg^−1): did not significantly reduce; % inhibition MC4 (h) [7]: 13%; % inhibition MT1 (ML1A) (h) [8]: 52%; % inhibition NK2 (h) [9]: 31%; % inhibition NK3 (h) [10]: 24%; % inhibition NOP (ORL1) (h) [11]: 4%; % inhibition P2X [12]: -10%; % inhibition PDGF [13]: 10%; Plasma protein binding human: 1.8 %free; Plasma protein binding mouse [14]: 4.1 %free
2 | CCCC(C)(C)c1ccc2c(c1)OC(C)(C)[C@@H]1CC=C(C)C[C@@H]21 [JWH133] | 6.80 ± 0.17 | 63 ± 7 | 50.9 | 1.71 ± 0.18 | 7.07 ± 0.05 | 8.07 ± 0.09 | 6.57 ± 0.12 | 0.21 | -0.67 ± 0.15 | 10.9 | 1.04 ± 0.21 | -0.75 ± 0.07 | -2.45 ± 0.17 | -1.42 ± 0.13 | 0.18 | 0.004 | 0.04 | did not produce detectable; also recorded: lacked appreciable pharmacological effects | -2 | -1 | % inhibition MC4 (h) [7]: -10%; % inhibition MT1 (ML1A) (h) [8]: -4%; % inhibition NK2 (h) [9]: 36%; % inhibition NK3 (h) [10]: -1%; % inhibition NOP (ORL1) (h) [11]: -5%; % inhibition P2X [12]: -5%; % inhibition PDGF [13]: -12%
3 | Cc1c(C(=O)c2cccc3ccccc23)c2cccc3c2n1[C@H](CN1CCOCC1)CO3 [WIN55212-2] | – | – | – | – | – | – | – | – | – | – | – | – | – | – | – | – | – | – | – | – | % inhibition FP (h) [15]: 81%; % inhibition COX2 (h) [16]: 50%; Plasma protein binding mouse [14]: 1.0 %free
4 | Cc1ccc2c(c1)Cc1c(C(=O)NN3CCCCC3)nn(-c3ccc(Cl)cc3Cl)c1-2 [Gp-1a] | – | – | – | – | – | – | – | – | – | – | – | – | – | – | – | – | – | – | – | – | % inhibition FP (h) [15]: 88%
5 | CCCCC/C=C\C/C=C\C/C=C\C/C=C\CCCC(=O)OC(CO)CO [2-AG, 2-arachidonoyl glycerol] | – | – | – | – | – | – | – | – | – | – | – | – | – | – | – | – | – | – | – | – | solubility kinetic [17]: < 0.5 µg/mL and < 1.3 µM; microsomal CLint [18]: 13 µL/min/mg; microsomal CLint [19]: 12 µL/min/mg
